# Results reported in US20230295197A1, “STAT5 and STAT6 Degraders and Uses Thereof” (REGENTS OF THE UNIVERSITY OF MICHICAN, priority 2022, published 2023).
# Like-named read-outs stand apart in the source and are kept apart here.
# Target: T1, STAT6 (Homo sapiens, UniProt P42226)
# T1 construct: endogenous in cells; host or cells: MOLM-16, KU-812, SKNO1, MB231, L1236
# T1 sequence (P42226 1-847): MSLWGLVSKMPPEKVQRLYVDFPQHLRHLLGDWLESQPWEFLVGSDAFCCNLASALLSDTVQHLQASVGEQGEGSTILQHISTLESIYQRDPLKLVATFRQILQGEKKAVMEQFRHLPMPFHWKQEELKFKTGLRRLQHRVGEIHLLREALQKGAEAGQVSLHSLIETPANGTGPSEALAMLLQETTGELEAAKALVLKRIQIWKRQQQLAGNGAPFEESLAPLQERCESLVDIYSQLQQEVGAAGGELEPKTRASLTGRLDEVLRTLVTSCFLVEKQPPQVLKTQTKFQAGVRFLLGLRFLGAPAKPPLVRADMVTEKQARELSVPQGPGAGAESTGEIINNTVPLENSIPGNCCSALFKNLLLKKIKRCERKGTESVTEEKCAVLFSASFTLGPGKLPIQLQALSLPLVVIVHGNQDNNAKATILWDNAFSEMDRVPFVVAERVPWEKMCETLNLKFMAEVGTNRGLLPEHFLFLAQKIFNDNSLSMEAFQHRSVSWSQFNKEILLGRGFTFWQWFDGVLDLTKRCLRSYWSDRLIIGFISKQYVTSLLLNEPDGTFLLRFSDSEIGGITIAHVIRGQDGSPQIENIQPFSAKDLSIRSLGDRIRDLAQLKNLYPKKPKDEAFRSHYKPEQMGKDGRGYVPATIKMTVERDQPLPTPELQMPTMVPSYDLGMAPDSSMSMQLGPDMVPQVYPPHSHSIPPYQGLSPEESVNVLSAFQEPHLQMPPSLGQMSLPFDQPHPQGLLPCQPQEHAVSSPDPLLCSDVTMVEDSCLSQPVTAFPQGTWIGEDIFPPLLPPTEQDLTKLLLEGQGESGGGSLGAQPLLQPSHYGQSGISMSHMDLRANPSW
# Assay: Immunoblotting (Western blot) analysis of STAT6 degradation efficiency of degraders in treated cells
# Assay type: cell-based
# How it was run: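 ~1e6 cells/pt; cpd at indicated conc and duration; RIPA + protease/phosphatase inhibitors; BCA; 20-40 μg/lane Tris-glycine SDS-PAGE; PVDF; primary Ab 1:1000 o/n 4 °C; IRDye secondaries 1 h rt; infrared scan and densitometry; GAPDH loading ctrl.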
# [1] = L1236 cells, read-out: DC50 S6 L1236
# [2] = MOLM-16 cells, class symbols, read-out: DC50 S6 MOLM-16
SMILES,DC50 [1] [µM],DC50 [2] [µM],"DC50 (MOLM-16 cells, numeric bound, read-out: DC50 S6 MOLM-16) [µM]"
"Cc1ncsc1-c1ccc([C@H](C)NC(=O)[C@@H]2C[C@@H](O)CN2C(=O)[C@@H](NC(=O)CCCNC(=O)CO[C@H]2C[C@@H](C(=O)N3CCC[C@H](c4ccccc4)C3)N(C(=O)[C@@H](NC(=O)c3cc4cc(C(F)(F)P(=O)(O)O)ccc4s3)C(C)(C)C)C2)C(C)(C)C)cc1 [Compound 436, (difluoro(2-(((S)-1-((2S,4S)-4-(2-((4-(((S)-1-((2S,4R)-4-hydroxy-2-(((S)-1-(4-(4-methylthiazol-5-yl)phenyl)ethyl)carbamoyl)pyrrolidin-1-yl)-3,3-dimethyl-1-oxobutan-2-yl)amino)-4-oxobutyl)amino)-2-oxoethoxy)-2-((R)-3-phenylpiperidine-1-carbonyl)pyrrolidin-1-yl)-3,3-dimethyl-1-oxobutan-2-yl)carbamoyl)benzo[b]thiophen-5-yl)methyl)phosphonic acid]",> 10,> 10,
"Cc1ncsc1-c1ccc([C@H](C)NC(=O)[C@@H]2C[C@@H](O)CN2C(=O)[C@@H](NC(=O)CCCNC(=O)COc2ccc3c(c2)CN(C(=O)[C@@H](NC(=O)c2cc4cc(C(F)(F)P(=O)(O)O)ccc4s2)C(C)(C)C)[C@H](C(=O)N2CCO[C@H](c4ccccc4)C2)C3)C(C)(C)C)cc1 [Compound 463, (difluoro(2-(((S)-1-((S)-7-(2-((4-(((S)-1-((2S,4R)-4-hydroxy-2-(((S)-1-(4-(4-methylthiazol-5-yl)phenyl)ethyl)carbamoyl)pyrrolidin-1-yl)-3,3-dimethyl-1-oxobutan-2-yl)amino)-4-oxobutyl)amino)-2-oxoethoxy)-3-((R)-2-phenylmorpholine-4-carbonyl)-3,4-dihydroisoquinolin-2(1H)-yl)-3,3-dimethyl-1-oxobutan-2-yl)carbamoyl)benzo[b]thiophen-5-yl)methyl)phosphonic acid]",> 10,> 10,
"CC(C)(C)[C@H](NC(=O)c1cc2cc(C(F)(F)P(=O)(O)O)ccc2s1)C(=O)N1CCN(C(=O)CC(=O)NCCCCC#Cc2cccc3c2C(=O)N(C2CCC(=O)NC2=O)C3=O)C[C@H]1C(=O)N1CCC[C@H](c2ccccc2)C1 (stereo partly drawn) [Compound 527, ((2-(((2S)-1-((2S)-4-(3-((6-(2-(2,6-dioxopiperidin-3-yl)-1,3-dioxoisoindolin-4-yl)hex-5-yn-1-yl)amino)-3-oxopropanoyl)-2-((R)-3-phenylpiperidine-1-carbonyl)piperazin-1-yl)-3,3-dimethyl-1-oxobutan-2-yl)carbamoyl)benzo[b]thiophen-5-yl)difluoromethyl)phosphonic acid]",,> 10,
"CC(C)(C)[C@H](NC(=O)c1cc2cc(C(F)(F)P(=O)(O)O)ccc2s1)C(=O)N1Cc2cc(OCC(=O)NCC#Cc3cccc4c3C(=O)N(C3CCC(=O)NC3=O)C4=O)ccc2C[C@H]1C(=O)N1CCC[C@H](c2ccccc2)C1 (stereo partly drawn) [Compound 549, ((2-(((2S)-1-((3S)-7-(2-((3-(2-(2,6-dioxopiperidin-3-yl)-1,3-dioxoisoindolin-4-yl)prop-2-yn-1-yl)amino)-2-oxoethoxy)-3-((R)-3-phenylpiperidine-1-carbonyl)-3,4-dihydroisoquinolin-2(1H)-yl)-3,3-dimethyl-1-oxobutan-2-yl)carbamoyl)benzo[b]thiophen-5-yl)difluoromethyl)phosphonic acid]",,> 10,
"CC(C)(C)[C@H](NC(=O)C1=Cc2cc(C(F)(F)P(=O)(O)O)ccc2C1)C(=O)N1CSN(C(=O)CC(=O)NCC#Cc2cccc3c2C(=O)N(C2CCC(=O)NC2=O)C3=O)C[C@H]1C(=O)N1CCC[C@H](c2ccccc2)C1 (stereo partly drawn) [Compound 521, ((2-(((2S)-1-((4S)-2-(3-((3-(2-(2,6-dioxopiperidin-3-yl)-1,3-dioxoisoindolin-4-yl)prop-2-yn-1-yl)amino)-3-oxopropanoyl)-4-((R)-3-phenylpiperidine-1-carbonyl)-1,2,5-thiadiazinan-5-yl)-3,3-dimethyl-1-oxobutan-2-yl)carbamoyl)-1H-inden-5-yl)difluoromethyl)phosphonic acid]",,> 10,
"Cc1ncsc1-c1ccc([C@H](C)NC(=O)[C@@H]2C[C@@H](O)CN2C(=O)[C@@H](NC(=O)CCCCCCCCCNC(=O)COc2ccc3c(c2)CN(C(=O)[C@@H](NC(=O)c2cc4cc(C(F)(F)P(=O)(O)O)ccc4s2)C(C)(C)C)[C@H](C(=O)N2CCC[C@H](c4ccccc4)C2)C3)C(C)(C)C)cc1 [Compound 478, (difluoro(2-(((S)-1-((S)-7-(2-((10-(((S)-1-((2S,4R)-4-hydroxy-2-(((S)-1-(4-(4-methylthiazol-5-yl)phenyl)ethyl)carbamoyl)pyrrolidin-1-yl)-3,3-dimethyl-1-oxobutan-2-yl)amino)-10-oxodecyl)amino)-2-oxoethoxy)-3-((R)-3-phenylpiperidine-1-carbonyl)-3,4-dihydroisoquinolin-2(1H)-yl)-3,3-dimethyl-1-oxobutan-2-yl)carbamoyl)benzo[b]thiophen-5-yl)methyl)phosphonic acid]",,> 10,
"Cc1ncsc1-c1ccc([C@H](C)NC(=O)[C@@H]2C[C@@H](O)CN2C(=O)[C@@H](NC(=O)CCCCCCCCCNC(=O)CO[C@H]2C[C@@H](C(=O)N3CCC[C@H](c4ccccc4)C3)N(C(=O)[C@@H](NC(=O)c3cc4cc(C(F)(F)P(=O)(O)O)ccc4s3)C(C)(C)C)C2)C(C)(C)C)cc1 [Compound 442, (difluoro(2-(((S)-1-((2S,4S)-4-(2-((10-(((S)-1-((2S,4R)-4-hydroxy-2-(((S)-1-(4-(4-methylthiazol-5-yl)phenyl)ethyl)carbamoyl)pyrrolidin-1-yl)-3,3-dimethyl-1-oxobutan-2-yl)amino)-10-oxodecyl)amino)-2-oxoethoxy)-2-((R)-3-phenylpiperidine-1-carbonyl)pyrrolidin-1-yl)-3,3-dimethyl-1-oxobutan-2-yl)carbamoyl)benzo[b]thiophen-5-yl)methyl)phosphonic acid]",> 10,> 10,
"Cc1ncsc1-c1ccc([C@H](C)NC(=O)[C@@H]2C[C@@H](O)CN2C(=O)[C@@H](NC(=O)CCCCNC(=O)CC(=O)N2CCN(C(=O)[C@@H](NC(=O)c3cc4cc(C(F)(F)P(=O)(O)O)ccc4s3)C(C)(C)C)[C@H](C(=O)N3CCO[C@H](c4ccccc4)C3)C2)C(C)(C)C)cc1 [Compound 446, (difluoro(2-(((S)-1-((S)-4-(3-((5-(((S)-1-((2S,4R)-4-hydroxy-2-(((S)-1-(4-(4-methylthiazol-5-yl)phenyl)ethyl)carbamoyl)pyrrolidin-1-yl)-3,3-dimethyl-1-oxobutan-2-yl)amino)-5-oxopentyl)amino)-3-oxopropanoyl)-2-((R)-2-phenylmorpholine-4-carbonyl)piperazin-1-yl)-3,3-dimethyl-1-oxobutan-2-yl)carbamoyl)benzo[b]thiophen-5-yl)methyl)phosphonic acid]",> 10,> 10,
"CC(C)(C)[C@H](NC(=O)c1cc2cc(C(F)(F)P(=O)(O)O)ccc2s1)C(=O)N1Cc2cc(OCC(=O)NCCCCCC#Cc3cccc4c3C(=O)N(C3CCC(=O)NC3=O)C4=O)ccc2C[C@H]1C(=O)N1CCC[C@H](c2ccccc2)C1 (stereo partly drawn) [Compound 557, ((2-(((2S)-1-((3S)-7-(2-((7-(2-(2,6-dioxopiperidin-3-yl)-1,3-dioxoisoindolin-4-yl)hept-6-yn-1-yl)amino)-2-oxoethoxy)-3-((R)-3-phenylpiperidine-1-carbonyl)-3,4-dihydroisoquinolin-2(1H)-yl)-3,3-dimethyl-1-oxobutan-2-yl)carbamoyl)benzo[b]thiophen-5-yl)difluoromethyl)phosphonic acid]",,> 10,
"CC(C)(C)[C@H](NC(=O)c1cc2cc(C(F)(F)P(=O)(O)O)ccc2s1)C(=O)N1CCN(C(=O)CC(=O)NCCCCC#Cc2ccc3c(c2)C(=O)N(C2CCC(=O)NC2=O)C3=O)C[C@H]1C(=O)N1CCO[C@H](c2ccccc2)C1 (stereo partly drawn) [Compound 514, ((2-(((2S)-1-((2S)-4-(3-((6-(2-(2,6-dioxopiperidin-3-yl)-1,3-dioxoisoindolin-5-yl)hex-5-yn-1-yl)amino)-3-oxopropanoyl)-2-((R)-2-phenylmorpholine-4-carbonyl)piperazin-1-yl)-3,3-dimethyl-1-oxobutan-2-yl)carbamoyl)benzo[b]thiophen-5-yl)difluoromethyl)phosphonic acid]",,> 10,
"CC(C)(C)[C@H](NC(=O)c1cc2cc(C(F)(F)P(=O)(O)O)ccc2s1)C(=O)N1CCN(C(=O)CCCC#Cc2ccc3c(c2)CN(C2CCC(=O)NC2=O)C3=O)C[C@H]1C(=O)N1CCO[C@H](c2ccccc2)C1 (stereo partly drawn) [Compound 597, ((2-(((2S)-1-((2S)-4-(6-(2-(2,6-dioxopiperidin-3-yl)-1-oxoisoindolin-5-yl)hex-5-ynoyl)-2-((R)-2-phenylmorpholine-4-carbonyl)piperazin-1-yl)-3,3-dimethyl-1-oxobutan-2-yl)carbamoyl)benzo[b]thiophen-5-yl)difluoromethyl)phosphonic acid]",,,> 0.3
